Reference: ChEMBL document CHEMBL5030545, “Discovery of clinical candidate Sivopixant (S-600918): Lead optimization of dioxotriazine derivatives as selective P2X3 receptor antagonists” (Bioorg Med Chem Lett, 2021)
Values after ≈ are worked out from the molar mass of the structure shown.

What was measured:
Rattus norvegicus [1] = test: Analgesic activity in rat model of partial sciatic nerve ligation-induced neuropathic pain assessed as reversal of allodynia at 10 mg/kg, po measured after 3 hrs relative to control; format: functional
[2] = Plasma concentration in rat at 1 mg/kg, po measured after 3 hrs; format: ADME, organism-based
[3] = Plasma concentration in rat at 3 mg/kg, po measured after 3 hrs; format: ADME, organism-based
Rattus norvegicus [4] = test: Analgesic activity in rat model of partial sciatic nerve ligation-induced neuropathic pain assessed as reversal of allodynia at 3 mg/kg, po measured after 3 hrs relative to control; format: functional
Rattus norvegicus [5] = test: Analgesic activity in rat model of partial sciatic nerve ligation-induced neuropathic pain assessed as reversal of allodynia at 1 mg/kg, po measured after 3 hrs relative to control; format: functional
[6] = Plasma concentration in rat at 10 mg/kg, po measured after 3 hrs; format: ADME, organism-based
P2X purinoceptor 3 = target: T1, P2X purinoceptor 3 (Rattus norvegicus, UniProt P49654); test: Antagonist activity at rat P2X3 receptor
T1 sequence (P49654 whole entry): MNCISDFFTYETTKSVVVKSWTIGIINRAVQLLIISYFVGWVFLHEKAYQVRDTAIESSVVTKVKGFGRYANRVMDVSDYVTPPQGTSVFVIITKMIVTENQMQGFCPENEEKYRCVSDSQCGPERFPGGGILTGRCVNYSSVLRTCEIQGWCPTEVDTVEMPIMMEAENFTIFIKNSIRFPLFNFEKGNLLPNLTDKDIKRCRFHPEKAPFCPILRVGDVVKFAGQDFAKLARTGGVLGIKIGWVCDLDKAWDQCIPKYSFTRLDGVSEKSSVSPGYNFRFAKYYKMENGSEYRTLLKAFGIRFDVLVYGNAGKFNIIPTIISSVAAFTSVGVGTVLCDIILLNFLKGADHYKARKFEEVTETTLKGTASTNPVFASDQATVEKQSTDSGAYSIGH

[7] = Clearance in rat at 1 mg/kg, iv; format: ADME, organism-based; conditions: in vivo
[8] = Half life in rat at 1 mg/kg, iv; format: ADME, organism-based; conditions: in vivo
[9] = Oral bioavailability in rat at 1 mg/kg administered as cassette dose; format: ADME, organism-based; conditions: in vivo
[10] = Protein binding in rat plasma assessed as unbound fraction at 1 mg/kg administered as cassette dose; format: ADME, organism-based
[11] = Free plasma concentration in rat plasma at 1 mg/kg administered as cassette dose; format: ADME, organism-based; conditions: in vivo
P2X purinoceptor 1 = target: T2, P2X purinoceptor 1 (Homo sapiens, UniProt P51575); test: Antagonist activity at P2X1 receptor (unknown origin)
T2 sequence (P51575 whole entry): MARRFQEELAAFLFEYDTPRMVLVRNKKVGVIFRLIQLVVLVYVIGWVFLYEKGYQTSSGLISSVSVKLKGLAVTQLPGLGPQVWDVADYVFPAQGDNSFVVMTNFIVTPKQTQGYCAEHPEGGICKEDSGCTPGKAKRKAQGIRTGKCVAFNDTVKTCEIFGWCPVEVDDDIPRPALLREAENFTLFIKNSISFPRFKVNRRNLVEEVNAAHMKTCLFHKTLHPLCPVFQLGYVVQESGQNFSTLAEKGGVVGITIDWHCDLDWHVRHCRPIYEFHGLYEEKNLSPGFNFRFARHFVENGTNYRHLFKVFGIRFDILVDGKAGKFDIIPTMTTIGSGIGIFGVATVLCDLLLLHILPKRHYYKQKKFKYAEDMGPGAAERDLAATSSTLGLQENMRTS

P2X purinoceptor 2 = target: T3, P2X purinoceptor 2 (Homo sapiens, UniProt Q9UBL9); test: Antagonist activity at P2X2 receptor (unknown origin)
T3 sequence (Q9UBL9 whole entry): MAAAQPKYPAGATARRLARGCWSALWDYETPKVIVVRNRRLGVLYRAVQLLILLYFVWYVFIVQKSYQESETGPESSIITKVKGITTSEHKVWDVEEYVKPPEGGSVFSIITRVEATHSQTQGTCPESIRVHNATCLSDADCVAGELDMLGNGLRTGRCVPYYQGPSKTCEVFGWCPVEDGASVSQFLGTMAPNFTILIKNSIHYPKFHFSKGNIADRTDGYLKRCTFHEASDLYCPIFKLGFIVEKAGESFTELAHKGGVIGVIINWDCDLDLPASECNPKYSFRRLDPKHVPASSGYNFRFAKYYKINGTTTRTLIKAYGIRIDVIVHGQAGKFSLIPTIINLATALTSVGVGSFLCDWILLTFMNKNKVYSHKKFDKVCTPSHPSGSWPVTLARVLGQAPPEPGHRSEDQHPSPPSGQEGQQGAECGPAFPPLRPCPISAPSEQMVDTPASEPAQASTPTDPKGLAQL

P2X purinoceptor 4 = target: T4, P2X purinoceptor 4 (Homo sapiens, UniProt Q99571); test: Antagonist activity at P2X4 receptor (unknown origin)
T4 sequence (Q99571 whole entry): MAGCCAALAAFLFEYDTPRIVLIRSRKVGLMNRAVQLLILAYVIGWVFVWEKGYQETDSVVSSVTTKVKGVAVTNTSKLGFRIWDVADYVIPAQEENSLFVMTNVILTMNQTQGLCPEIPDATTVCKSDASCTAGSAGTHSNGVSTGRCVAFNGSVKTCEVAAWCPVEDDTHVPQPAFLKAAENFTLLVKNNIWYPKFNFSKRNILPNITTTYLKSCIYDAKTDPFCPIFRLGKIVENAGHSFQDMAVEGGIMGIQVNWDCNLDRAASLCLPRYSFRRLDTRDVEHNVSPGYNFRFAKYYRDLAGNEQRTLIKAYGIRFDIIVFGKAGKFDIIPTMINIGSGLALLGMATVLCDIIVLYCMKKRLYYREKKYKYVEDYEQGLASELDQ

P2X purinoceptor 7 = target: T5, P2X purinoceptor 7 (Homo sapiens, UniProt Q99572); test: Antagonist activity at P2X7 receptor (unknown origin)
T5 sequence (Q99572 whole entry): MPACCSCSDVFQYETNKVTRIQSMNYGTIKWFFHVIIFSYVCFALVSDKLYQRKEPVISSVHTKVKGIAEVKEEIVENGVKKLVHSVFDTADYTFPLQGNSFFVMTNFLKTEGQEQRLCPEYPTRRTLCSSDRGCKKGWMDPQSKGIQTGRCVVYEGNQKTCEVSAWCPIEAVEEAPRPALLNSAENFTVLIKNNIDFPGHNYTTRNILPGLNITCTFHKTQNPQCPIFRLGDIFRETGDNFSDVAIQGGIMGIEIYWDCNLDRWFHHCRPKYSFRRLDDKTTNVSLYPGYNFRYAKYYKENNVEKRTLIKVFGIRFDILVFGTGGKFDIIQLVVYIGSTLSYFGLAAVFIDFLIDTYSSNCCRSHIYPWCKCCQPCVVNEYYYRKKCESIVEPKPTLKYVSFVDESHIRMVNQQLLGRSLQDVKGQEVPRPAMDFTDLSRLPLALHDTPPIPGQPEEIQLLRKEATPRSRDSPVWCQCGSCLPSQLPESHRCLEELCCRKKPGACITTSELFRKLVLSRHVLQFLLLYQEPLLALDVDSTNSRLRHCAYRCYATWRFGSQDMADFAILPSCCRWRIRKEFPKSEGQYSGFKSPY

[12] = Solubility of the compound in pH 1.2 JP1 fluid; format: physicochemical
[13] = Solubility of the compound in JP2 fluid at pH 6.8; format: physicochemical
Cytochrome P450 1A2 = target: T6, Cytochrome P450 1A2 (Homo sapiens, UniProt P05177); test: Inhibition of CYP1A2 (unknown origin); format: ADME
T6 sequence (P05177 whole entry): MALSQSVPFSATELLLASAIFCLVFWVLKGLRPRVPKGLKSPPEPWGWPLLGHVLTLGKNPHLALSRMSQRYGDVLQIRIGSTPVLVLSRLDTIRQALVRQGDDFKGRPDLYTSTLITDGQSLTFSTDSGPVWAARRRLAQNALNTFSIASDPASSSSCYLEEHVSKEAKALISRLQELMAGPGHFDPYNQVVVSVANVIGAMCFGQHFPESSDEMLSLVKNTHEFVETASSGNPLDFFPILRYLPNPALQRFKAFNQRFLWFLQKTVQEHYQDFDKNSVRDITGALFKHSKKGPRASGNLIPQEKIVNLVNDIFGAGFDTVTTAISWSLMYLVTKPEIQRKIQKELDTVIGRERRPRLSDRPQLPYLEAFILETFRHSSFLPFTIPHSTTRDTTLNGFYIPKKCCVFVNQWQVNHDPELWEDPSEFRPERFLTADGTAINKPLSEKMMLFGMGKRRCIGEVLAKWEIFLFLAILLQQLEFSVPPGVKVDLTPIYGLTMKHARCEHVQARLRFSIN

Cytochrome P450 2C9 = Cytochrome P450 2C9 (Homo sapiens, UniProt P11712); test: Inhibition of CYP2C9 (unknown origin); format: ADME
Cytochrome P450 2C19 = Cytochrome P450 2C19 (Homo sapiens, UniProt P33261); test: Inhibition of CYP2C19 (unknown origin); format: ADME
Cytochrome P450 2D6 = Cytochrome P450 2D6 (Homo sapiens, UniProt P10635); test: Inhibition of CYP2D6 (unknown origin); format: functional
Cytochrome P450 3A4 = Cytochrome P450 3A4 (Homo sapiens, UniProt P08684); test: Inhibition of CYP3A4 (unknown origin); format: ADME
[14] = AUC in rat at 3 mg/kg, po; format: ADME, organism-based; parameters: dose 3 mg/kg; conditions: in vivo
[15] = Cmax in rat at 3 mg/kg, po; format: ADME, organism-based; parameters: route oral, dose 3 mg/kg; conditions: in vivo
[16] = Oral bioavailability in rat at 3 mg/kg; format: ADME, organism-based; conditions: in vivo
[17] = Protein binding in rat plasma assessed as unbound fraction at 3 mg/kg, iv; format: ADME, organism-based
Rattus norvegicus [18] = test: Analgesic activity in po dosed rat model of partial sciatic nerve ligation-induced neuropathic pain; format: functional

Cytochrome P450 2C9, sequence (P11712 whole entry): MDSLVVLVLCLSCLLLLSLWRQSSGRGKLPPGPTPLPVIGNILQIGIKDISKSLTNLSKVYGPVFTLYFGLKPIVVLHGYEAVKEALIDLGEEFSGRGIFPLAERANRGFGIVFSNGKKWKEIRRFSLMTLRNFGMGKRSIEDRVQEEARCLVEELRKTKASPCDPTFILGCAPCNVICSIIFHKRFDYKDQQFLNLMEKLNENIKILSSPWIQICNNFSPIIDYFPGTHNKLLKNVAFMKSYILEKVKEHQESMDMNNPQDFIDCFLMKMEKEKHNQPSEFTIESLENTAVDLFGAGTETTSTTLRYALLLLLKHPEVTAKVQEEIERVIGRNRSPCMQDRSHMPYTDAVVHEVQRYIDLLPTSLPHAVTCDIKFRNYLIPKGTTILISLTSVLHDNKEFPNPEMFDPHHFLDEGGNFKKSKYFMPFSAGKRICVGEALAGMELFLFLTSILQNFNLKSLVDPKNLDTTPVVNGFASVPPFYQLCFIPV
Cytochrome P450 2C19, sequence (P33261 whole entry): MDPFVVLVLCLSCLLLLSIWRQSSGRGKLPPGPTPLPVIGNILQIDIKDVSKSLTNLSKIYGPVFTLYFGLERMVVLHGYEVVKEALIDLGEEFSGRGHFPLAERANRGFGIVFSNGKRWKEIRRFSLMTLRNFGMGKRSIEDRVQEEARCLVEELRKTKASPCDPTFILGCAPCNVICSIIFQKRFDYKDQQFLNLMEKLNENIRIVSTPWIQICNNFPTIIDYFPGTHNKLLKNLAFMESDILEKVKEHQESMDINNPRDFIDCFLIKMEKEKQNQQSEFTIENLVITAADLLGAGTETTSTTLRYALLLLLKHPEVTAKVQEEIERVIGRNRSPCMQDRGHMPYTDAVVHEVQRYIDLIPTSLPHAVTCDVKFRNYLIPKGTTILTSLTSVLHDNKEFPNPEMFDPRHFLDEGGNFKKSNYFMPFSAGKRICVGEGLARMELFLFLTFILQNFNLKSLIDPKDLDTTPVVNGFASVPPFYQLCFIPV
Cytochrome P450 2D6, sequence (P10635 whole entry): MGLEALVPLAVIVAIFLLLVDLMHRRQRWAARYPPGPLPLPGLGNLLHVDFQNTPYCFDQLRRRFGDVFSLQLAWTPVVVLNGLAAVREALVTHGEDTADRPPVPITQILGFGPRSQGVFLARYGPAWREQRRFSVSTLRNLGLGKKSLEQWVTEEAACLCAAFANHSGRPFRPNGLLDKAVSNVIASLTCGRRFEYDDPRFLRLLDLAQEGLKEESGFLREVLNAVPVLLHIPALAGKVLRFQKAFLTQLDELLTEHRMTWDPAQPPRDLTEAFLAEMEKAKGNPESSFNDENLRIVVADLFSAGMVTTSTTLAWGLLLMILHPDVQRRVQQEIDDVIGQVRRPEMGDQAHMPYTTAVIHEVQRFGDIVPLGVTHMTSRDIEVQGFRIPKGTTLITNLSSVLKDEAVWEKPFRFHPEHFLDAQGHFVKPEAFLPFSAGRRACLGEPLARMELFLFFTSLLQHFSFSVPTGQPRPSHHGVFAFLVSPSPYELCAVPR
Cytochrome P450 3A4, sequence (P08684 whole entry): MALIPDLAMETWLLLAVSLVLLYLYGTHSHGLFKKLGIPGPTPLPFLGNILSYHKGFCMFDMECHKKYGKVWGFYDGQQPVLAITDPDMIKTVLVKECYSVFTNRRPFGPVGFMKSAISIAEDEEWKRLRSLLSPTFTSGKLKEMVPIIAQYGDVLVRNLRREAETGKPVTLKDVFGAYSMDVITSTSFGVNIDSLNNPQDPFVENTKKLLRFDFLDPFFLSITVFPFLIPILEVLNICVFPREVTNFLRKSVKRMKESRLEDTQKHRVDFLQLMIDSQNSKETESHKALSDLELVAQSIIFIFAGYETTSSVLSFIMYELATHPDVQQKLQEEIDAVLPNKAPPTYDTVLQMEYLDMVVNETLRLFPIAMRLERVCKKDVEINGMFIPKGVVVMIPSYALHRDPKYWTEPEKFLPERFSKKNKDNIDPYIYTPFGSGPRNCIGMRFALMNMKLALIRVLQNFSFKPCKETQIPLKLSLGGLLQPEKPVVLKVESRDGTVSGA

| IC50 (P2X purinoceptor 3) | clearance [7] | half-life [8] | bioavailability [9] | fraction unbound [10] | Cp(f) [11] | IC50 (P2X purinoceptor 1) | IC50 (P2X purinoceptor 2) | IC50 (P2X purinoceptor 4) | IC50 (P2X purinoceptor 7) | solubility [12] | solubility [13] | IC50 (Cytochrome P450 1A2) | IC50 (Cytochrome P450 2C9) | IC50 (Cytochrome P450 2C19) | IC50 (Cytochrome P450 2D6) | IC50 (Cytochrome P450 3A4) | AUC [14] | Cmax [15] | bioavailability [16] | Compound | also measured |
| --- | --- | --- | --- | --- | --- | --- | --- | --- | --- | --- | --- | --- | --- | --- | --- | --- | --- | --- | --- | --- | --- |
| 6.1 nM | 2.7 mL/min/kg | 96 min | – | – | – | – | – | – | – | – | – | – | – | – | – | – | – | – | – | Cc1ccc(Cn2c(Nc3ccc(OC(C)C)c(Cl)c3)nc(=O)n(CCC(=O)O)c2=O)cc1 | Activity (Rattus norvegicus [1]): 40%; concentration at 3 h [2]: 1320 nM; concentration at 3 h [3]: 2650 nM; Activity (Rattus norvegicus [4]): 23%; Activity (Rattus norvegicus [5]): 11%; concentration at 3 h [6]: 7.84 µM |
| 7.7 nM | 2.2 mL/min/kg | 264 min | 87.6% | 0.012 | 671 nM | > 30 µM | > 30 µM | > 30 µM | > 30 µM | 0.8 µg/mL (≈ 1.56 µM) | 650 µg/mL (≈ 1260 µM) | > 20 µM | > 20 µM | > 20 µM | > 20 µM | > 20 µM | 13700 ng·h/mL | 1610 ng/mL | 60% | C[C@@H](Cn1c(=O)[nH]/c(=N\c2ccc(Oc3ccsn3)cc2)n(Cc2ccc(Cl)cc2)c1=O)C(=O)O | fraction unbound [17]: 0.012; ED50 (Rattus norvegicus [18]): 0.4 mg/kg |
| 3.8 nM | 5.9 mL/min/kg | 258 min | 43.2% | 0.013 | 738 nM | > 30 µM | > 30 µM | > 30 µM | > 30 µM | 2.2 µg/mL (≈ 4.18 µM) | 212 µg/mL (≈ 403 µM) | > 20 µM | > 20 µM | > 20 µM | > 20 µM | > 20 µM | 4020 ng·h/mL | 597 ng/mL | 46.9% | C[C@@H](Cn1c(=O)[nH]/c(=N\c2ccc(Oc3ccnc(F)c3)cc2)n(Cc2ccc(Cl)cc2)c1=O)C(=O)O | fraction unbound [17]: 0.013; ED50 (Rattus norvegicus [18]): 0.3 mg/kg |
